The record followed here is ChEMBL document CHEMBL5500376, “Novel pyxinol amide derivatives bearing an aliphatic heterocycle as P-glycoprotein modulators for overcoming multidrug resistance” (Eur J Med Chem, 2024).

Test [1] is described as follows: Cytotoxicity against human KBV cells assessed as cell survival at 10 uM measured after 72 hrs incubation by MTT assay relative to control. In kind it is functional. To be noted: read-out: Activity.
Test [2] is described as follows: Reversal of multi-drug resistance in human KVB cells assessed as increase in PTX-induced cytotoxicity by measuring cell survival at 10 uM measured after 72 hrs incubation in presence of 100 nM paclitaxel by MTT assay relative to control. In kind it is functional, KBV. On the technique in general: Tetrazolium dyes change colour on reduction, which living cells bring about.

Test [3] is described as follows: Reversal of multi-drug resistance in human KVB cells assessed as increase in PTX-induced cytotoxicity by measuring cell survival at 5 uM measured after 72 hrs incubation in presence of 100 nM paclitaxel by MTT assay relative to control. In kind it is functional, KBV.

`CC(C)(O)[C@H]1CC[C@@](C)([C@H]2CC[C@]3(C)[C@@H]2[C@H](O)C[C@@H]2[C@@]4(C)CC[C@H](NC(=O)[C@@H]5COCCN5)C(C)(C)[C@@H]4CC[C@]23C)O1`: the viability at 10 µM in test [1] was 89%. Besides, the Activity is recorded as 57% in test [2] and 82% in test [3].
Turning to `CC(C)(O)[C@H]1CC[C@@](C)([C@H]2CC[C@]3(C)[C@@H]2[C@H](O)C[C@@H]2[C@@]4(C)CC[C@H](NC(=O)CC5CNC5)C(C)(C)[C@@H]4CC[C@]23C)O1`, the viability at 10 µM in test [1] worked out at 96%. The Activity in test [2] stood at 90%; in test [3] it was 95%.
As for `CC(=O)N1CCC[C@H]1C(=O)N[C@H]1CC[C@]2(C)[C@H]3C[C@@H](O)[C@@H]4[C@@H]([C@]5(C)CC[C@H](C(C)(C)O)O5)CC[C@@]4(C)[C@]3(C)CC[C@H]2C1(C)C`, in test [1], the viability at 10 µM is 97%. Also, the figures for the Activity in test [2] and in test [3] were 63% and 80%, respectively.
The corresponding values for `CC(C)(O)[C@H]1CC[C@@](C)([C@H]2CC[C@]3(C)[C@@H]2[C@H](O)C[C@@H]2[C@@]4(C)CC[C@H](NC(=O)[C@H]5CCN5)C(C)(C)[C@@H]4CC[C@]23C)O1` are 70%, 68% and 86%.
`CC(C)(O)[C@H]1CC[C@@](C)([C@H]2CC[C@]3(C)[C@@H]2[C@H](O)C[C@@H]2[C@@]4(C)CC[C@H](NC(=O)[C@@H]5CCNC5)C(C)(C)[C@@H]4CC[C@]23C)O1`: the viability at 10 µM in test [1] is 99%. Moreover, the Activity in test [2] stood at 49%; in test [3], 67%.
On to `CC(C)(C)OC(=O)N1CC(C(=O)N[C@H]2CC[C@]3(C)[C@H]4C[C@@H](O)[C@@H]5[C@@H]([C@]6(C)CC[C@H](C(C)(C)O)O6)CC[C@@]5(C)[C@]4(C)CC[C@H]3C2(C)C)C1`, for which, in test [1], the viability at 10 µM worked out at 91%. Besides, the results for the Activity in test [2] and in test [3] were 54% and 80%, respectively.
As for `CC(C)(O)[C@H]1CC[C@@](C)([C@H]2CC[C@]3(C)[C@@H]2[C@H](O)C[C@@H]2[C@@]4(C)CC[C@H](NC(=O)[C@@H]5CCC(=O)N5)C(C)(C)[C@@H]4CC[C@]23C)O1`, the viability at 10 µM in test [1] came to 100%. In addition, the Activity in test [2] is given as 87%; in test [3], 93%.
Taken in the same sequence, the figures for `CC(C)(O)[C@H]1CC[C@@](C)([C@H]2CC[C@]3(C)[C@@H]2[C@H](O)C[C@@H]2[C@@]4(C)CC[C@H](NC(=O)[C@H]5C[C@@H](O)CN5)C(C)(C)[C@@H]4CC[C@]23C)O1` were 98%, 98% and 95%.
With `C[S+](C)[O-]` [DIMETHYL SULFOXIDE], in test [1], the viability at 10 µM was 100%. Also, the Activity in test [2] and in test [3] was 100% throughout.
As to `CC(C)(O)[C@H]1CC[C@@](C)([C@H]2CC[C@]3(C)[C@@H]2[C@H](O)C[C@@H]2[C@@]4(C)CC[C@H](NC(=O)[C@H]5CCCNC5)C(C)(C)[C@@H]4CC[C@]23C)O1`, the viability at 10 µM in test [1] is 94%. The Activity came to 45% in test [2] and 83% in test [3].
Regarding `CC(C)(C)OC(=O)N1CCCC[C@@H]1C(=O)N[C@H]1CC[C@]2(C)[C@H]3C[C@@H](O)[C@@H]4[C@@H]([C@]5(C)CC[C@H](C(C)(C)O)O5)CC[C@@]4(C)[C@]3(C)CC[C@H]2C1(C)C`, the viability at 10 µM in test [1] worked out at 118%. For the same molecule, the Activity in test [2] is given as 27%; in test [3], 42%.
Consider `CC(C)(O)[C@H]1CC[C@@](C)([C@H]2CC[C@]3(C)[C@@H]2[C@H](O)C[C@@H]2[C@@]4(C)CC[C@H](NC(=O)C5CNC5)C(C)(C)[C@@H]4CC[C@]23C)O1`, for which the viability at 10 µM in test [1] was 97%. Further, the Activity in test [2] is on record as 61%; in test [3], 76%.
